From US8324258B2, “F1F0-ATPase inhibitors and related methods” (The Regents of the University of Michigan, priority 2007, dated 2012)

Columns and labels:
F1F0-ATPase [1] = biological target: T1, F1F0-ATPase (Bos taurus, UniProt P13621); experiment: Inhibition of ATP hydrolysis by the F1F0-ATPase; assay type: biochemical; conditions: for ATP Hydrolysis (IC40 μM): IC40: concentration for 40% inhibition
Experimental: (§1) The compounds listed in Table 9 were tested for activity against F1F0-ATPase by measuring ATP synthesis and ATP hydrolysis. In addition, the compounds were assessed for cytotoxicity in Ramos cells Inhibition of ATP synthesis and hydrolysis by the F1F0-ATPase and cytotoxicity in Ramos cells was measured as described in K. M. Johnson et al. Chemistry & Biology 2005, 12, 485-496.

F1F0-ATPase [2] = biological target: T1, F1F0-ATPase; experiment: Inhibition of ATP synthesis by the F1F0-ATPase; assay type: biochemical; conditions: for ATP Synthesis (IC40 μM): IC40: concentration for 40% inhibition
Experimental: as §1

Ramos cells = experiment: Cytotoxicity (cell death) in Ramos cells; assay type: cell-based
Experimental: as §1

O=C(N=C(NCCc1c[nH]cn1)Nc1ccc(F)cc1)c1cccc(Cl)c1 [III-16, (Z/E)-N-((2-(1H-imidazol-4-yl)ethylamino)(4-fluorophenylamino)methylene)-3-chlorobenzamide]
ATP Hydrolysis (IC40 μM) (F1F0-ATPase [1]): >30 µM
ATP Synthesis (IC40 μM) (F1F0-ATPase [2]): >20 µM
EC50 (Ramos cells; Ramos cells): > 30 µM

O=C(N=C(NCCc1c[nH]cn1)Nc1ccc2ccccc2c1)c1cccc(Cl)c1 [III-26, (Z/E)-N-((2-(1H-imidazol-4-yl)ethylamino)(naphthalen-2-ylamino)methylene)-3-chlorobenzamide]
ATP Hydrolysis (IC40 μM) (F1F0-ATPase [1]): >10 µM
ATP Synthesis (IC40 μM) (F1F0-ATPase [2]): >10 µM
EC50 (Ramos cells; Ramos cells): > 10 µM

O=C(/N=C(\Nc1ccc(-c2ccccc2)cc1)Nc1ccc2[nH]ccc2c1)c1cccc(Cl)c1 [IV-8, (Z/E)-N-((1H-indol-5-ylamino)(biphenyl-4-ylamino)methylene)-3-chlorobenzamide]
ATP Hydrolysis (IC40 μM) (F1F0-ATPase [1]): >30 µM
ATP Synthesis (IC40 μM) (F1F0-ATPase [2]): >10 µM
EC50 (Ramos cells; Homo sapiens, Ramos): < 10 µM

CCc1cccc(CC)c1NC(=NC(=O)c1cccc(Cl)c1)NCCc1c[nH]cn1 [III-44, (Z/E)-N-((2-(1H-imidazol-4-yl)ethylamino)(2,6-diethylphenylamino)methylene)-3-chlorobenzamide]
hydro (relative to Bz-423) (F1F0-ATPase [1]; ATP hydrolysis, multiple of Bz-423): 0.8 ×Bz-423
syn (relative to Bz-423) (F1F0-ATPase [2]; ATP synthesis, multiple of Bz-423): 0.7 ×Bz-423
Ramos cell death (relative to Bz-423) (Ramos cells; Ramos cells, multiple of Bz-423): 2.5 ×Bz-423

Cc1cccc(C(=O)N=C(NCCc2c[nH]cn2)Nc2cccc(-c3ccccc3)c2)c1 [VI-2, (Z/E)-N-((2-(1H-imidazol-4-yl)ethylamino)(biphenyl-3-ylamino)methylene)-3-methylbenzamide]
ATP Hydrolysis (IC40 μM) (F1F0-ATPase [1]): >10 µM
ATP Synthesis (IC40 μM) (F1F0-ATPase [2]): <10 µM
EC50 (Ramos cells; Ramos cells): > 10 µM

CN(C)S(=O)(=O)c1ccc(NC(=NC(=O)c2cccc(Cl)c2)NCCc2cnc[nH]2)cc1 [III-39, (Z/E)-N-((2-(1H-imidazol-5-yl)ethylamino)(4-(N,N-dimethylsulfamoyl)phenylamino)methylene)-3-chlorobenzamide]
ATP Hydrolysis (IC40 μM) (F1F0-ATPase [1]): >30 µM
ATP Synthesis (IC40 μM) (F1F0-ATPase [2]): >20 µM
EC50 (Ramos cells; Ramos cells): > 30 µM

O=C(/N=C(/NCCn1ccnc1)Nc1ccc(-c2ccccc2)cc1)c1cccc(Cl)c1 [IV-2, (Z/E)-N-((2-(1H-imidazol-1-yl)ethylamino)(biphenyl-4-ylamino)methylene)-3-chlorobenzamide]
ATP Hydrolysis (IC40 μM) (F1F0-ATPase [1]): >10 µM
ATP Synthesis (IC40 μM) (F1F0-ATPase [2]): <10 µM
EC50 (Ramos cells; Homo sapiens, Ramos): > 10 µM

O=C(N=C(NCCc1c[nH]cn1)Nc1cccc(-c2ccccc2)c1)c1ccc(Cl)cc1 [VI-14, (Z/E)-N-((2-(1H-imidazol-4-yl)ethylamino)(biphenyl-3-ylamino)methylene)-4-chlorobenzamide]
ATP Hydrolysis (IC40 μM) (F1F0-ATPase [1]): >10 µM
ATP Synthesis (IC40 μM) (F1F0-ATPase [2]): <10 µM
EC50 (Ramos cells; Ramos cells): > 10 µM

O=C(/N=C(/NCCc1c[nH]cn1)Nc1cccc2cc[nH]c12)c1cccc(Cl)c1 [Compound V-4, (Z/E)-N-((2-(1H-imidazol-4-yl)ethylamino)(1H-indol-7-ylamino)methylene)-3-chlorobenzamide]
ATP Hydrolysis (IC40 μM) (F1F0-ATPase [1]): >10 µM
ATP Synthesis (IC40 μM) (F1F0-ATPase [2]): >10 µM
EC50 (Ramos cells; Homo sapiens, Ramos): > 30 µM

O=C(/N=C(/NCCc1cn[nH]c1)Nc1ccc(-c2ccccc2)cc1)c1cccc(Cl)c1 [IV-4, (Z/E)-N-((2-(1H-pyrazol-4-yl)ethylamino)(biphenyl-4-ylamino)methylene)-3-chlorobenzamide]
ATP Hydrolysis (IC40 μM) (F1F0-ATPase [1]): >10 µM
ATP Synthesis (IC40 μM) (F1F0-ATPase [2]): <10 µM
EC50 (Ramos cells; Homo sapiens, Ramos): < 10 µM

O=C(N=C(NCCc1c[nH]cn1)Nc1cccc(-c2ccccc2)c1)c1cccc([N+](=O)[O-])c1 [VI-12, (Z/E)-N-((2-(1H-imidazol-4-yl)ethylamino)(biphenyl-3-ylamino)methylene)-3-nitrobenzamide]
ATP Hydrolysis (IC40 μM) (F1F0-ATPase [1]): >30 µM
ATP Synthesis (IC40 μM) (F1F0-ATPase [2]): <10 µM
EC50 (Ramos cells; Ramos cells): > 10 µM

O=C(N=C(NCCc1c[nH]cn1)Nc1cccc(-c2ccccc2)c1)c1ccc(F)cc1 [VI-8, (Z/E)-N-((2-(1H-imidazol-4-yl)ethylamino)(biphenyl-3-ylamino)methylene)-4-fluorobenzamide]
ATP Hydrolysis (IC40 μM) (F1F0-ATPase [1]): >10 µM
ATP Synthesis (IC40 μM) (F1F0-ATPase [2]): <10 µM
EC50 (Ramos cells; Ramos cells): > 10 µM

O=C(N=C(NCCc1c[nH]cn1)Nc1ccc(C(F)(F)F)cc1)c1cccc(Cl)c1 [III-25, (Z/E)-N-((2-(1H-imidazol-4-yl)ethylamino)(4-(trifluoromethyl)phenylamino)methylene)-3-chlorobenzamide]
ATP Hydrolysis (IC40 μM) (F1F0-ATPase [1]): <10 µM
ATP Synthesis (IC40 μM) (F1F0-ATPase [2]): >10 µM
EC50 (Ramos cells; Ramos cells): > 10 µM

O=C(N=C(NCCc1c[nH]cn1)Nc1cccc(-c2ccccc2)c1)c1ccc(C(F)(F)F)cc1 [VI-4, (Z/E)-N-((2-(1H-imidazol-4-yl)ethylamino)(biphenyl-3-ylamino)methylene)-4-(trifluoromethyl)benzamide]
ATP Hydrolysis (IC40 μM) (F1F0-ATPase [1]): >10 µM
ATP Synthesis (IC40 μM) (F1F0-ATPase [2]): <10 µM
EC50 (Ramos cells; Ramos cells): > 10 µM

O=C(N=C(NCCc1c[nH]cn1)Nc1ccccc1-c1ccccc1)c1ccccc1Cl [Compound I-1, (Z/E)-N-((2-(1H-imidazol-4-yl)ethylamino)(biphenyl-2-ylamino)methylene)-2-chlorobenzamide]
ATP Hydrolysis (IC40 μM) (F1F0-ATPase [1]): >30 µM
ATP Synthesis (IC40 μM) (F1F0-ATPase [2]): >20 µM
EC50 (Ramos cells; Ramos cells): > 30 µM

O=C(N=C(NCCc1c[nH]cn1)Nc1ccccc1Cl)c1cccc(Cl)c1 [III-17, (Z/E)-N-((2-(1H-imidazol-4-yl)ethylamino)(2-chlorophenylamino)methylene)-3-chlorobenzamide]
ATP Hydrolysis (IC40 μM) (F1F0-ATPase [1]): >20 µM
ATP Synthesis (IC40 μM) (F1F0-ATPase [2]): >10 µM
EC50 (Ramos cells; Ramos cells): > 30 µM

Cc1cccc(-c2ccc(NC(=NC(=O)c3cccc(Cl)c3)NCCc3c[nH]cn3)cc2)c1 [III-31, (Z/E)-N-((2-(1H-imidazol-4-yl)ethylamino)(3′-methylbiphenyl-4-ylamino)methylene)-3-chlorobenzamide]
ATP Hydrolysis (IC40 μM) (F1F0-ATPase [1]): >10 µM
ATP Synthesis (IC40 μM) (F1F0-ATPase [2]): >10 µM
EC50 (Ramos cells; Ramos cells): < 10 µM

Cc1ccc(C(=O)N=C(NCCc2c[nH]cn2)Nc2ccc(-c3ccccc3)cc2)cc1 [II-3, (Z/E)-N-((2-(1H-imidazol-4-yl)ethylamino)(biphenyl-4-ylamino)methylene)-4-methylbenzamide]
ATP Hydrolysis (IC40 μM) (F1F0-ATPase [1]): >10 µM
ATP Synthesis (IC40 μM) (F1F0-ATPase [2]): >10 µM
EC50 (Ramos cells; Ramos cells): < 10 µM

N#Cc1ccc(C(=O)N=C(NCCc2c[nH]cn2)Nc2cccc(-c3ccccc3)c2)cc1 [VI-6, (Z/E)-N-((2-(1H-imidazol-4-yl)ethylamino)(biphenyl-3-ylamino)methylene)-4-cyanobenzamide]
ATP Hydrolysis (IC40 μM) (F1F0-ATPase [1]): >30 µM
ATP Synthesis (IC40 μM) (F1F0-ATPase [2]): <10 µM
EC50 (Ramos cells; Ramos cells): > 10 µM

Cc1cccc(C(=O)N=C(NCCc2c[nH]cn2)Nc2ccc(-c3ccccc3)cc2)c1 [II-2, (Z/E)-N-((2-(1H-imidazol-4-yl)ethylamino)(biphenyl-4-ylamino)methylene)-3-methylbenzamide]
ATP Hydrolysis (IC40 μM) (F1F0-ATPase [1]): >10 µM
ATP Synthesis (IC40 μM) (F1F0-ATPase [2]): >10 µM
EC50 (Ramos cells; Ramos cells): > 30 µM

O=C(N=C(NCCc1c[nH]cn1)Nc1cccc(-c2ccccc2)c1)c1cccc(F)c1 [VI-7, (Z/E)-N-((2-(1H-imidazol-4-yl)ethylamino)(biphenyl-3-ylamino)methylene)-3-fluorobenzamide]
ATP Hydrolysis (IC40 μM) (F1F0-ATPase [1]): >10 µM
ATP Synthesis (IC40 μM) (F1F0-ATPase [2]): <10 µM
EC50 (Ramos cells; Ramos cells): > 10 µM

COc1ccc(NC(=NC(=O)c2cccc(Cl)c2)NCCc2c[nH]cn2)cc1 [III-13, (Z/E)-N-((2-(1H-imidazol-4-yl)ethylamino)(4-methoxyphenylamino)methylene)-3-chlorobenzamide]
ATP Hydrolysis (IC40 μM) (F1F0-ATPase [1]): >30 µM
ATP Synthesis (IC40 μM) (F1F0-ATPase [2]): >10 µM
EC50 (Ramos cells; Ramos cells): > 30 µM
